Data set [1] can be described thus: Solid-liquid equilibrium temperature. As to conditions: 101.3 kPa.
Data set [2] can be described thus: Molar enthalpy of transition or fusion. As to conditions: Crystal; DSC.

Numbers after ± are expanded uncertainties.

With `C1COCCOCCOCCOCCOCCO1` [1,4,7,10,13,16-hexaoxacyclooctadecane], the Solid-liquid equilibrium temperature in data set [1] (Crystal 1) is given as 311.76 ± 0.8 K. For the compound `CN1CCCC1=O` [N-methylpyrrolidone], the Solid-liquid equilibrium temperature in data set [1] (Crystal) worked out at 249.68 ± 0.4 K. In addition, the “Molar enthalpy of transition or fusion” value in data set [2] came to 2.64 ± 0.0908 kcal/mol.

In the case of `C1COCCO1` [1,4-dioxane], the Solid-liquid equilibrium temperature in data set [1] (Crystal) is recorded as 285.08 ± 0.4 K.

Source of the values: the NIST ThermoML archive (doi:10.1016/j.fluid.2004.11.006).
